Reference: patent US20090099191A1, “INHIBITION OF NF-KB” (priority 2006, published 2009)

How the values were obtained:
[1] = system: p53 transactivation in RCC45ConALacZ cells; experiment: RCC cell-based p53-responsive reporter (ConALacZ) screening
From the text: Reporter cell lines with p53 responsive β-galactosidase were described in Gurova, et al. (2004). Cancer Res 64, 1951-1958. Reporter cell lines with p53 responsive luciferase was generated by transfection of p21-ConALuc plasmid with following selection on G418. Reporter cell lines with NF-κB-dependent luciferase were obtained by cotransfection of pNF-κBLuc and pEGFP-mito (Clontech) plasmids followed by selection on G418 (marker provided by pEGFP-mito plasmid). Reporter cell lines with myc, or Clock/Bmal responsive reporters were kindly provided by C. Burkhart and M. Antoch (Cleveland Clinic Foundation, OH).
2×10^4 of RCC45ConALacZ cells were plated into wells of 96 well plates in 200 μL of phenol-red free RPMI medium with standard additives. […] After 3 hours of incubation at 37° C., β-galactosidase activity was estimated by reading absorbance values Wallack 1420 plate reader (Perkin Elmer) at λ=430 nm.
For cotransfection set-up, 2×10^5 cells were plated into 6 well plates and, after overnight incubation, transfected with Lipofectamin Plus reagent (Gibco BRL) with 0.5 μg of reporter plasmids (p21-ConALuc or pNF-κBLuc) in combination with different concentrations of p53, Arf, Ss-IκB, or siHDM2 expressing plasmids. […] Luminometric and colorimetric reactions were read on the Wallack 1420 plate reader (Perkin Elmer). […]

DNA [2] = details: intercalation; cited from earlier work
DNA [3] = experiment: DNA damaging activity
[4] = system: variety of tumor cell types; experiment: p53 activation and p53-dependent killing of tumor cell types; type: cell-based; details: besides RCC
NF-κB = NF-κB activity in tumor cells; type: cell-based
tumor and normal cells = experiment: Toxicity to tumor versus normal cells; type: cell-based; details: in vitro and in vivo
Protocol: 5×10^3 of cells were plated in 6 well plates and treated with different concentrations of drugs for 24 hours. Then fresh drug-free medium was added. Number of colonies was estimated after 5-6 days of incubation. Cell survival was estimated as a percentage of intensity of methylene blue staining of treated cells, comparing with untreated control (methylene blue from stained colonies was extracted by 0.1% of SDS and quantitated spectrophotometrically).

Structure (SMILES)	identified as p53 activator / hit in reporter screen ([1]; RCC45ConALacZ cell-based reporter assay)	DNA binding affinity (DNA [2])	DNA damaging activity (DNA [3])	p53-dependent killing [4]	p53 activation [4]	effect on stimulated and basal constitutive NF-κB activity (NF-κB)	toxicity to tumor versus normal cells (tumor and normal cells)	p53 reactivation relative to doxorubicin ([1]; RCC45 cells, library of 59 derivatives of compound 30d9, fold of p53 activation over the effect of 2 μM of doxorubicin (FIG. 3B))
Cc1c2ccncc2c(C)c2c1[nH]c1ccccc12 [ellipticine]	identified	10^6 M^−1	–	–	–	–	–	–
Nc1c2ccccc2nc2ccccc12 [Compound 9AA, 9-aminoacridine]	–	–	did not show DNA damaging activity	p53-dependent killing	capable of p53 activation	block stimulated NF-κB activity and also effectively reduce basal levels of constitutive NF-κB activity	more toxic to tumor than to normal cells	–
CCN(CC)CCCC(C)Nc1c2ccc(Cl)cc2nc2ccc(OC)cc12 (stereo not drawn) [Quinacrine]	–	–	did not show DNA damaging activity	p53-dependent killing	capable of p53 activation	–	more toxic to tumor than to normal cells	intermediate level of activity
